We go through 86 compounds from ChEMBL document CHEMBL1157539, “Thousands of chemical starting points for antimalarial lead identification” (Nature, 2010).

Molecules are shown by their SMILES.

In this assay the test system is Plasmodium falciparum. In words: GSK_TCMDC: Inhibition of Plasmodium falciparum 3D7 in whole erythrocytes, using parasite LDH activity as an index of growth. The format is functional, organism-based. The conditions noted are these: Plasmodium falciparum, 3D7.
`Cc1ccc(Nc2nc(N/N=C/c3cccc([N+](=O)[O-])c3)nc(Nc3ccccc3)n2)c(C)c1` yielded an XC50 of 626 nM.
The compound `CCN(CC)CCN(Cc1ccc(-c2ccc(C(F)(F)F)cc2)cc1)C(=O)Cn1c(CCc2cccc(F)c2F)nc(=O)c2cc(F)c(F)cc21` gave an XC50 of 833 nM.
Take `CCN(CC)CCN(Cc1ccc(-c2ccc(C(F)(F)F)cc2)cc1)C(=O)Cn1c(CCc2ccc(F)c(F)c2)cc(=O)c2ccccc21`: the XC50 came to 890 nM.
The result for `Nc1nc(N)c2cc(S(=O)(=O)c3ccc4ccccc4c3)ccc2n1` reads 36.8 nM; that for `COc1cc(Cc2cnc(N)nc2N)cc(CC(C)O)c1O` (stereo unspecified), 843 nM; that for `COc1ccc(-c2ccc(NC(=O)c3ccc(Cl)cc3)cc2)cc1CN(C)CCN(C)C`, 675 nM.
With `Cc1cccc2nc(-c3cccc(-c4ccc(CN5CCCC5CN)cc4)c3)[nH]c12` (stereo unspecified), the XC50 stood at 760 nM.
For `O=C(Nc1ccc(OC2CCN(Cc3ccccc3)C2)c(Cl)c1)c1ccsc1` (stereo unspecified), the XC50 is 735 nM.
With `COCCCNC(=O)C1CCN(C(c2ccc(Cl)cc2)c2ccc(Cl)cc2)CC1`, the XC50 was 920 nM.
The compound `CN(C)CCN(C)Cc1ccc(-c2ccc3c(Nc4ccc(Cl)cc4F)ccnc3c2)o1` had an XC50 of 360 nM.
The compound `O=C1CCCN1CCCNCc1ccc(-c2cccc(-c3nc4ccccc4[nH]3)c2)cc1` returned an XC50 of 1020 nM.
`O=C(NCCN1CCCCC1)c1cccc(Nc2nccc(Nc3ccc(Oc4ccccc4)cc3)n2)c1` gave an XC50 of 273 nM.
On to `FC(F)(F)c1ccc2[nH]c(-c3cccc(-c4cccc(CNCCN5CCNCC5)c4)c3)nc2c1`, for which the XC50 stood at 937 nM.
Compound `CCOc1cc(C(=O)NC2CCN(Cc3ccccc3)C2)ccc1-c1nc2cc(Cl)ccc2[nH]1` (stereo unspecified) gave an XC50 of 1010 nM.
The result for `COc1ccc2ncc(F)c(CCN3CCC(NCc4cc(F)c5c(c4)OCCO5)CC3)c2n1` reads 346 nM; that for `Nc1nc(N)c2c(ccc3c2ccn3Cc2ccc(Br)cc2)n1`, 3.2 nM; that for `COc1ccc(CNC2Cc3ccccc3C2)cc1-c1ccc(S(=O)(=O)NCCN2CCCC2)s1`, 195 nM.
Turning to `Cc1cc(N[C@@H](Cc2ccccc2)C(=O)NCCOc2ccccc2)nc(NCc2ccccc2C)n1`, the XC50 was 711 nM.
The result for `CC[C@H]1CN2CC[C@@H]1C[C@H]2[C@H](O)c1cc(N2CCC(O)CC2)nc2ccc(OC)cc12` reads 166 nM; that for `COc1ccc(Br)cc1/C=C/C(=O)Nc1ccc(C2CCN(C)CC2)cc1`, 502 nM.
The result for `COc1ccccc1C1CCN(CCN2CCC(NC(=O)c3ccc(-c4ccc(C#N)cc4)cc3)CC2)CC1` reads 792 nM; that for `Cc1cccc2nc(-c3cccc(-c4cccc(NC(=O)Nc5cccc(C#N)c5)c4)c3)[nH]c12`, 104 nM.
For the compound `Cc1cc(NC(=O)NCCN2CCC(NC(=O)c3ccc(Cl)cc3)CC2)c2ccccc2n1`, the XC50 was determined as 381 nM.
As to `CC(C)(C)c1ccc(CN(C[C@@H](O)CNS(=O)(=O)c2cc(Cl)cc(Cl)c2)C(C)(C)C)cc1`, the XC50 stood at 935 nM.
As to `COc1ccc(C(c2ccc(N(C)C)cc2)c2ccc(N(C)C)cc2)cc1`, the XC50 turned out to be 64.8 nM.
Compound `COc1ccc(NC(=O)NC2CCN(CCCCCNC(=O)/C=C/c3ccc(Cl)c(Cl)c3)C2)c(OC)c1` (stereo unspecified) came in with an XC50 of 823 nM.
Compound `N#Cc1c(N)n(CCc2ccc(F)cc2)c2nc3ccccc3nc12` showed an XC50 of 973 nM.
`O=C(Nc1ccc(Cl)cc1)c1ccc(CN2CCCN(CC3CCCCC3)CC2)cc1` showed an XC50 of 220 nM.
`CCCC(C)C(=O)N1CCOC(COCc2cccc(C(F)(F)F)c2)(c2ccc(Cl)cc2)C1` (stereo unspecified) registered an XC50 of 403 nM.
`O=C(NC1CCN(c2ccc(F)cc2[N+](=O)[O-])CC1)c1cccs1` returned an XC50 of 675 nM.
The result for `CC(=O)Oc1c(C(=O)C2CCC(C(C)(C)C)CC2)c(OC(C)=O)c2ccccc2c1OC(C)=O` (stereo unspecified) reads 268 nM; that for `Cc1cnc(CNCc2ccc(S(=O)(=O)Nc3ccc(Oc4cccc(Cl)c4)cc3)cc2)cn1`, 766 nM.
With `C[C@H](CNc1ccnc(Nc2ccc3[nH]c(=O)[nH]c3c2)n1)c1ccccc1`, the XC50 stood at 1310 nM.
For `Cc1cc(N[C@@H](CC(C)C)C(=O)Nc2ccccc2)nc(Nc2ccccc2)n1`, the XC50 was 728 nM.
Take `CO/C(=C\C=C\c1cc2cc(Cl)c(Cl)cc2[nH]1)C(=O)NCCCN1CC(C)N(C)CC1C` (stereo unspecified): the XC50 was found to be 1130 nM.
The result for `CC1=C(C(=O)Nc2cc3cn[nH]c3cc2F)C(c2ccc(Cl)c(NS(C)(=O)=O)c2)CC(=O)N1` (stereo unspecified) reads 482 nM.
Turning to `COCCNC(=O)c1ccc(OC2CCN(Cc3ccc(F)c(F)c3)CC2)c(Cl)c1`, the XC50 is 1490 nM.
The value for `COc1cc(NC(=O)N2CCc3ccc(OCCN4CCCCC4)cc32)cc(C(F)(F)F)c1` was 266 nM.
In turn, `O=C(NCCCCN1CCC(c2c[nH]c3ccccc23)CC1)c1sc(-c2ccc(C(F)(F)F)cc2)nc1CO` registered an XC50 of 1200 nM.
The value for `N#CCc1ccc(Nc2nccc(Nc3ccc(Oc4ccccc4)cc3)n2)cc1` was 805 nM.
Compound `COc1ccc2nccc([C@@H](O)CN3CCC(NCc4cc5c(Cl)cccc5[nH]4)CC3)c2c1` yielded an XC50 of 155 nM.
In the case of `Nc1nc(N)c2c(n1)CCc1cc(Br)ccc1-2`, the XC50 is 1130 nM.
As to `O=C(/C=C/c1ccc(Cl)c(Cl)c1)NCCCCCN1CCC(NC(=S)Nc2ccc(F)cc2F)CC1`, the XC50 came out at 805 nM.
Take `Cc1cccc2nc(-c3ccc(-c4ccc(CN5CCN(c6ccncc6)CC5)cc4)s3)[nH]c12`: the XC50 is 114 nM.
`CC(=O)C1(c2ccccc2)CCN(CCC2(c3ccc(Cl)c(Cl)c3)CN(C(=O)C3CCCCC3)CCO2)CC1` (stereo unspecified) registered an XC50 of 314 nM.
`Cc1cccc2c1NC(=O)/C2=N/NC(=S)N(C)C` yielded an XC50 of 755 nM.
In turn, `CCC(C)NC(=O)Nc1ccc(-c2cccc(-c3nc4cccc(C)c4[nH]3)c2)cc1` (stereo unspecified) displayed an XC50 of 189 nM.
Regarding `O=C(/C=C/c1ccc(Cl)c(Cl)c1)NCC(CCCN1CCC(c2c[nH]c3ccccc23)CC1)c1ccccc1` (stereo unspecified), the XC50 stood at 813 nM.
In turn, `O=C(C=Cc1ccc(Cl)c(Cl)c1)NCCCCCN1CCC(CCCNS(=O)(=O)c2ccc(F)cc2)CC1` came in with an XC50 of 1020 nM.
For the compound `CN1CCN(CCCNc2ncc3c(-c4ccc(NC(=O)Nc5cc(C(F)(F)F)ccc5F)c(F)c4)nn(C)c3n2)CC1`, the XC50 amounted to 859 nM.
The compound `CC(C)Sc1nc2c(c(=O)n1CCc1ccccc1)C1(CCCCC1)Cc1ccccc1-2` returned an XC50 of 1870 nM.
In turn, `CNCCNCc1cccc(-c2cccc(-c3nc4cc(F)ccc4[nH]3)c2)c1` gave an XC50 of 670 nM.
Consider `Fc1ccc2[nH]c(-c3ccc(-c4ccc(CNCCc5cccnc5)cc4)s3)nc2c1`, for which the XC50 turned out to be 236 nM.
Compound `Oc1ccc(CCNCCCCNCCc2ccc(Cl)cc2)cc1O` returned an XC50 of 843 nM.
The result for `COc1c(C2CCN(CCCCNC(=O)c3cc(-c4ccc(Cl)cc4)oc3C)CC2)ccc2c1CCCC2` reads 882 nM; that for `COc1ccc(N2C(N)=NC(N)=NC2(C)C)cc1`, 113 nM; that for `O=C(Nc1cccc(-c2cccc(-c3ccc(F)cc3)n2)c1)c1ccc([N+](=O)[O-])o1`, 361 nM.
In the case of `O=C(Nc1cccc(-c2ccc(-c3nc4cc(F)ccc4[nH]3)cc2)c1)c1cccnc1`, the XC50 was 612 nM.
The compound `CC(C)C[C@@H](NC(=O)OC(C)(C)C)C(=O)Nc1ccc(Cc2ccc(NC(=O)[C@@H](CC(C)C)NC(=O)OC(C)(C)C)cc2)cc1` gave an XC50 of 207 nM.
Take `O=C(NCc1ccccc1)c1ncn(CCCN2CCC(N3CCCC3)CC2)c1-c1ccc(Cl)c(Cl)c1`: the XC50 was 1120 nM.
With `CCCN(CCC)CCCNc1ccc(C(=O)Nc2ccc(C)c(F)c2)cc1[N+](=O)[O-]`, the XC50 amounted to 539 nM.
The value for `O=C(NC1CCN(Cc2ccc(F)cc2)CC1)c1ccc(-c2cccc(C(F)(F)F)c2)s1` was 1360 nM; that for `O=C(N[C@@H](CC1CCCCC1)C(=O)NCCN1CCCC1)c1ccc(O)c(-c2cccc(C(F)(F)F)c2)c1` was 760 nM.
In turn, `O=C(NCC1CCN(Cc2ccc3c(c2)OCCO3)C1)c1cc(-c2ccccc2F)cs1` (stereo unspecified) yielded an XC50 of 1020 nM.
For `O=C(/C=C/c1ccc(F)c(Br)c1)NCCCCCN1CCC(c2c[nH]c3ccccc23)CC1`, the XC50 was 864 nM.
The compound `O=c1cc(NCCCNCc2ccc(C(F)(F)F)s2)[nH]c2ccccc12` had an XC50 of 200 nM.
`CN1CCCN(c2ccnc3cc4c(cc23)N(C(=O)c2ccc(C(F)(F)F)cc2)CC4)CC1` displayed an XC50 of 794 nM.
On to `CCN(CCCN1CCCCC1)c1cc(C)nc(Nc2ccc(C)cc2C)n1`, for which the XC50 was 351 nM.
The result for `CCc1cccc(-c2cc(N)n(C)c3nc(N)nc(=O)c2-3)c1` reads 1120 nM.
`CCN(CC)C(=O)C1CCCN(C(=O)Nc2cc(C(F)(F)F)cc(C(F)(F)F)c2)C1` (stereo unspecified): the XC50 came out at 996 nM.
`CC1(C)CCCC(=Cc2ccc(Br)cc2)C1(O)Cn1ccnc1` (stereo unspecified) gave an XC50 of 791 nM.
Consider `CC(=O)Nc1cccc(Nc2nccc(Nc3ccc(Oc4ccccc4)cc3)n2)c1`, for which the XC50 was determined as 745 nM.
Compound `O=C(Nc1ccc(-c2nc3ccccc3[nH]2)cc1)c1cnc(Cl)c(Cl)c1` had an XC50 of 728 nM.
As for `O=C(Nc1cccc(F)c1)N1CCC(NS(=O)(=O)c2ccc(Br)cc2)CC1`, the XC50 came out at 979 nM.
Regarding `FC(F)(F)c1ccc2[nH]c(-c3ccc(-c4ccc(CNCCN5CCNCC5)cc4)cc3)nc2c1`, the XC50 was determined as 1120 nM.
On to `COc1cc2c(cc1C(F)(F)F)N(C(=O)Nc1cc(OC(F)(F)F)cc(-c3cccnc3)c1)CC2`, for which the XC50 stood at 41.5 nM.
The result for `CCCC(=O)c1cnc2c(I)cccc2c1Nc1ccccc1C` reads 1160 nM.
Compound `CSC1=NC(=Nc2ccccc2C)C2(CCC(C(C)(C)C)CC2)N1c1ccccc1Cl` (stereo unspecified) had an XC50 of 800 nM.
With `O=C(NC1CC1)c1cnc(N2CCC(c3ccccc3)CC2)c(Cl)c1`, the XC50 was found to be 851 nM.
Consider `COc1ccc(Nc2cc(C)c3cc(NC(=O)c4ccncc4)ccc3n2)cc1`, for which the XC50 was found to be 908 nM.
`CCOc1cc(C(=O)NC2CC(C)(C)NC(C)(C)C2)ccc1-c1nc2cc(Cl)ccc2[nH]1` yielded an XC50 of 992 nM.
In the case of `CN(CCC(O)c1ccc(Cl)c(Cl)c1)CC1CC1C(=O)c1ccccc1` (stereo unspecified), the XC50 was 794 nM.
With `COc1ccc(-c2cc(NCc3ccc(-n4ccnc4)cc3)nc(Nc3ccccc3)n2)cc1`, the XC50 worked out at 966 nM.
The value for `CCOc1ccccc1NC(=O)C(Sc1nc(C)cc(C)c1C#N)c1ccccc1` (stereo unspecified) was 373 nM; that for `CCC(C)c1ccc(NC(=O)Nc2ccnc3ccccc23)cc1` (stereo unspecified) was 625 nM; that for `CCCCCC(C)N/C(=N/c1ccccc1Br)Nc1ccc([N+](=O)[O-])cc1O` (stereo unspecified) was 615 nM.
